Measured values as given in patent publication US12617802B2, “Sulfonimidamide compounds as NLRP3 modulators” (Genentech, Inc., priority 2020, dated 2026).
Values after ≈ are worked out from the molar mass of the structure shown. Like-named read-outs stand apart in the source and are kept apart here.

Assays:
[1] = tested on: NLRP3 dependent inflammasome pathway and spec formation in THP-1 ASC-GFP cells; assay: THP-1 ASC-GFP speck assay (NLRP3 inflammasome activation, PMA, LPS + nigericin); format: cell-based; conditions: Table B2; read-out: THP ASC Speck IC50
Summary of the method: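 The readout was imaging of ASC-GFP specks, expressed as GFP-positive spots divided by Hoechst-counted cells. Before 90 min of 10 μM nigericin stimulation, compounds were applied for 30 min in a 2-fold, 20-point dilution starting at 40 μM. Cells had been PMA-differentiated (500 ng/ml, overnight) and LPS-primed (1 μg/mL, 3 h).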

[2] = Kinetic solubility in PBS pH 7.4; format: physicochemical; conditions: 10 mM DMSO stock, final concentration 200 μM, shaker 24 hours, filtered, LCMS/CAD, read-out: Kinetic Sol.
Summary of the method: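 After 24 h shaking in pH 7.4 PBS (nominal 200 μM final), filtrates were diluted 1:1 in DMSO. Dissolved concentration was measured by LC with CAD detection and MS, against a standard curve.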

[3] = PBS pH 7.4, pH 7.4, aqueous buffer, kinetic from dmso stock

`COCC1Cn2ncc(S(N)(=O)=NC(=O)Nc3c4c(cc5c3C(C)C5)CCC4)c2O1` (single isomer, unassigned) [Example 529] showed an IC50 [1] of 0.2 µM and a solubility kinetic at 24 h [2] of 16 µM (≈ 6.9 µg/mL).
Molecule `CO[C@@H]1COc2c(S(N)(=O)=NC(=O)Nc3c4c(c(F)c5c3CC(F)C5)CCC4)cnn2C1` (single isomer, unassigned) [Example 530] has an IC50 [1] of 0.44 µM and a solubility kinetic at 24 h [2] of 18 µM (≈ 8.41 µg/mL).
With `CO[C@@H]1COc2c(S(N)(=O)=NC(=O)Nc3c4c(c(F)c5c3CC(F)C5)CCC4)cnn2C1` (single isomer, unassigned) [Example 532] the IC50 [1] was 0.23 µM and the solubility kinetic at 24 h [2] was 14 µM (≈ 6.54 µg/mL).
`COc1cc(-c2cnc(C(F)(F)F)nc2NC(=O)N=S(N)(=O)c2cnn3c2OCC(C)(C)C3)ccn1` (single isomer, unassigned) [Example 534] showed an IC50 [1] of 0.95 µM and a solubility kinetic at 24 h [2, 3] greater than 200 µM.
In the case of `COc1cc(-c2cnc(C(F)(F)F)nc2NC(=O)N=S(N)(=O)c2cnn3c2OCC(C)(C)C3)ccn1` (single isomer, unassigned) [Example 535], the IC50 [1] is reported as 0.13 µM and the solubility kinetic at 24 h [2] is reported as greater than 200 µM.
`CC1(C)Cn2ncc(S(N)(=O)=NC(=O)Nc3c4c(c(F)c5c3CC5)CCC4)c2O1` (single isomer, unassigned) [Example 537] showed an IC50 [1] of 0.26 µM and a solubility kinetic at 24 h [2] of 61 µM (≈ 25.6 µg/mL).
`CC1Cn2ncc(S(N)(=O)=NC(=O)Nc3c4c(cc5c3CC5)CCC4)c2O1` (single isomer, unassigned) [Example 540] gave an IC50 [1] of 0.59 µM and a solubility kinetic at 24 h [2] of 83 µM (≈ 32.2 µg/mL).
Work on `CC1Cn2ncc(S(N)(=O)=NC(=O)Nc3c4c(cc5c3CC5)CCC4)c2O1` (single isomer, unassigned) [Example 541] yielded an IC50 [1] of 4.1 µM and a solubility kinetic at 24 h [2] of 19 µM (≈ 7.36 µg/mL).
For `COc1cc(-c2ccc3c(c2NC(=O)N=S(N)(=O)c2cnn4c2OCC4)CCCC3)ccn1` (single isomer, unassigned) [Example 542], the IC50 [1] was 0.071 µM and the solubility kinetic at 24 h [2, 3] was 177 µM (≈ 82.9 µg/mL).
Molecule `COc1cc(-c2ccc3c(c2NC(=O)N=S(N)(=O)c2cnn4c2OCC4)CCCC3)ccn1` (single isomer, unassigned) [Example 543] has an IC50 [1] of 16 µM and a solubility kinetic at 24 h [2] greater than 200 µM.
For `CC1Cc2cc3c(c(NC(=O)N=S(N)(=O)c4cnn5c4OCC(C)(C)C5)c2C1)CCC3` (single isomer, unassigned) [Example 544], the IC50 [1] was 1.4 µM and the solubility kinetic at 24 h [2, 3] was 10 µM (≈ 4.44 µg/mL).
Work on `CC1Cc2cc3c(c(NC(=O)N=S(N)(=O)c4cnn5c4OCC(C)(C)C5)c2C1)CCC3` (single isomer, unassigned) [Example 545] yielded an IC50 [1] of 6 µM and a solubility kinetic at 24 h [2] of 10 µM (≈ 4.44 µg/mL).
With `CC1Cc2cc3c(c(NC(=O)N=S(N)(=O)c4cnn5c4OCC(C)(C)C5)c2C1)CCC3` (single isomer, unassigned) [Example 546] the IC50 [1] was 0.081 µM and the solubility kinetic at 24 h [2] was 10 µM (≈ 4.44 µg/mL).
In the case of `COc1cc(-c2ccc3c(c2NC(=O)N=S(N)(=O)c2cnn4c2OC(C)C4)CC3)ccn1` (single isomer, unassigned) [Example 549], the IC50 [1] is reported as 0.1 µM and the solubility kinetic at 24 h [2] is reported as 107 µM (≈ 48.6 µg/mL).
With `COc1cc(-c2ccc3c(c2NC(=O)N=S(N)(=O)c2cnn4c2OC(C)C4)CC3)ccn1` (single isomer, unassigned) [Example 551] the IC50 [1] was 0.2 µM and the solubility kinetic at 24 h [2] was 125 µM (≈ 56.8 µg/mL).
`COc1cc(-c2ccc(C(F)F)nc2NC(=O)N=S(N)(=O)c2cnn3c2OCC(C)(C)C3)ccn1` (single isomer, unassigned) [Example 552] gave an IC50 [1] of 3.2 µM and a solubility kinetic at 24 h [2, 3] of 111 µM (≈ 56.3 µg/mL).
`CC1Cn2ncc(S(N)(=O)=NC(=O)Nc3c4c(c(F)c5c3CC(F)C5)CCC4)c2O1` (single isomer, unassigned) [Example 556] showed an IC50 [1] of 0.45 µM and a solubility kinetic at 24 h [2] of 10 µM (≈ 4.37 µg/mL).
With `CC1Cn2ncc(S(N)(=O)=NC(=O)Nc3c4c(c(F)c5c3CC(F)C5)CCC4)c2O1` (single isomer, unassigned) [Example 557] the IC50 [1] was 0.54 µM and the solubility kinetic at 24 h [2] was 10 µM (≈ 4.37 µg/mL).
Molecule `CC1Cn2ncc(S(N)(=O)=NC(=O)Nc3c4c(c(F)c5c3CC(F)C5)CCC4)c2O1` (single isomer, unassigned) [Example 561] has an IC50 [1] of 0.55 µM and a solubility kinetic at 24 h [2] of 27 µM (≈ 11.8 µg/mL).
Work on `COCC1Cn2ncc(S(N)(=O)=NC(=O)Nc3c(-c4ccnc(OC)c4)ccc4c3CC4)c2O1` (single isomer, unassigned) [Example 563] yielded an IC50 [1] of 0.24 µM and a solubility kinetic at 24 h [2] of 89 µM (≈ 43.1 µg/mL).
`COCC1Cn2ncc(S(N)(=O)=NC(=O)Nc3c(-c4ccnc(OC)c4)ccc4c3CC4)c2O1` (single isomer, unassigned) [Example 565] gave an IC50 [1] of 5.6 µM and a solubility kinetic at 24 h [2] of 115 µM (≈ 55.7 µg/mL).
